Measurements reported in patent US10442803B2, “Tricyclic heterocycles as bet protein inhibitors” (Incyte Corporation, priority 2013, dated 2019).
Counter-ions that a name gives are not always drawn.

System: KMS.12.BM cells
Assay: KMS.12.BM cell viability assay
Format: cell-based
Conditions: 72 h; KMS.12.BM human myeloma cells, 3 days, Cell Titer-GLO ATP quantitation; read-out: KMS cellular IC50
Method: KMS.12.BM cell line (human myeloma) was purchased from JCRB (Osaka, Japan) and maintained in RPMI with 10% FBS culture medium. To measure the cytotoxic activity of the compounds through ATP quantitation, the KMS.12.BM cells are plated in the RPMI culture medium at 5000 cells/well/per 100 μL into a 96-well polystyrene clear black tissue culture plate (Greiner-bio-one through VWR, NJ), in the presence or absence of a concentration range of test compounds. After 3 days, […] Cell Titer-GLO Luminescent (Promega, Madison, Wis.) cell culture agent is added to each well for 10 minutes at room temperature to stabilize the luminescent signal. This determines the number of viable cells in culture based on quantitation of the ATP present, which signals the presence of metabolically active cells. Luminescence is measured with the Top Count 384 (Packard Bioscience through Perkin Elmer, Boston, Mass.).
IC50 data for the Examples is presented in Table 4 as determined by Assay B1.

SMILES | IC50
Cc1cc2c(cc(NC3CCN(C)C3)c3nnc(C)n32)n1Cc1ccccc1 (racemic) [Example 145, 6-benzyl-1,7-dimethyl-N-(1-methylpyrrolidin-3-yl)-6H-pyrrolo[2,3-e][1,2,4]triazolo[4,3-a]pyridin-4-amine bis(trifluoroacetate) salt (racemic)] | ≤ 1000 nM
Cc1cc2c(ccc3nnc(C)n32)n1Cc1ccc(F)cc1 [Example 16, 6-(4-fluorobenzyl)-1,7-dimethyl-6H-pyrrolo[2,3-e][1,2,4]triazolo[4,3-a]pyridine] | ≤ 1000 nM
Cc1cc2c(cc(NC(N)=O)c3nnc(C)n32)n1Cc1cccc(C(F)(F)F)c1 [Example 230, 1-(1,7-Dimethyl-6-(3-(trifluoromethyl)benzyl)-6H-pyrrolo[2,3-e][1,2,4]triazolo[4,3-a]pyridin-4-yl)urea] | ≤ 1000 nM
Cc1nnc2ccc3c(cc(-c4ccn(C)n4)n3Cc3cc(Cl)cc(CN4CCCC4)c3)n12 [Example 190, 6-[3-Chloro-5-(pyrrolidin-1-ylmethyl)benzyl]-1-methyl-7-(1-methyl-1H-pyrazol-3-yl)-6H-pyrrolo[2,3-e][1,2,4]triazolo[4,3-a]pyridine bis(trifluoroacetate) salt] | ≤ 1000 nM
Cc1cc2c(cc(Nc3ncccn3)c3nnc(C)n32)n1Cc1ccccc1 [Example 201, 6-Benzyl-1,7-dimethyl-N-pyrimidin-2-yl-6H-pyrrolo[2,3-e][1,2,4]triazolo[4,3-a]pyridin-4-amine tris(trifluoroacetate) salt] | ≤ 1000 nM
CNC(=O)c1cccc(Cn2c(C)cc3c2ccc2nnc(C)n23)c1 [Example 32, 3-[(1,7-dimethyl-6H-pyrrolo[2,3-e][1,2,4]triazolo[4,3-a]pyridin-6-yl)methyl]-N-methylbenzamide trifluoroacetate salt] | ≤ 1000 nM
Cc1cc2c(cc(NC3CCOCC3)c3nnc(C)n32)n1Cc1ccccc1 [Example 146, 6-benzyl-1,7-dimethyl-N-(tetrahydro-2H-pyran-4-yl)-6H-pyrrolo[2,3-e][1,2,4]triazolo[4,3-a]pyridin-4-amine] | 1000 to 10000 nM
Cc1cc2c(cc(NC3CCN(C(C)C)CC3)c3nnc(C)n32)n1Cc1ccccc1 [Example 213, 6-Benzyl-N-(1-isopropylpiperidin-4-yl)-1,7-dimethyl-6H-pyrrolo[2,3-e][1,2,4]triazolo[4,3-a]pyridin-4-amine] | ≤ 1000 nM
Cc1cccc(Cn2c(C)cc3c2ccc2nnc(C)n23)c1 [Example 18, 1,7-dimethyl-6-(3-methylbenzyl)-6H-pyrrolo[2,3-e][1,2,4]triazolo[4,3-a]pyridine] | ≤ 1000 nM
Cc1nnc2ccc3c(cc(C4=NCCO4)n3Cc3cccc(Cl)c3)n12 [Example 193, 6-(3-Chlorobenzyl)-7-(4,5-dihydro-1,3-oxazol-2-yl)-1-methyl-6H-pyrrolo[2,3-e][1,2,4]triazolo[4,3-a]pyridine] | ≤ 1000 nM
Cc1cc2c(ccc3nnc(C)n32)n1Cc1cccc(CN2CCNCC2)c1 [Example 48, 1,7-dimethyl-6-[3-(piperazin-1-ylmethyl)benzyl]-6H-pyrrolo[2,3-e][1,2,4]triazolo[4,3-a]pyridine] | 1000 to 10000 nM
CCS(=O)(=O)N1CC(n2ccc(-c3cc4c(ccc5nnc(C)n54)n3Cc3cccc(Cl)c3)n2)C1 [Example 166, 6-(3-Chlorobenzyl)-7-{1-[1-(ethylsulfonyl)azetidin-3-yl]-1H-pyrazol-3-yl}-1-methyl-6H-pyrrolo[2,3-e][1,2,4]triazolo[4,3-a]pyridine trifluoroacetate salt] | ≤ 1000 nM
CCNC(=O)c1cccc(Cn2c(C)cc3c2ccc2nnc(C)n23)c1 [Example 33, 3-[(1,7-dimethyl-6H-pyrrolo[2,3-e][1,2,4]triazolo[4,3-a]pyridin-6-yl)methyl]-N-ethylbenzamide trifluoroacetate salt] | ≤ 1000 nM
Cc1nnc2ccc3c(cc(-c4ccn(C)n4)n3Cc3cccc(CN4CCC4)c3)n12 [Example 184, 6-[3-(Azetidin-1-ylmethyl)benzyl]-1-methyl-7-(1-methyl-1H-pyrazol-3-yl)-6H-pyrrolo[2,3-e][1,2,4]triazolo[4,3-a]pyridine bis(trifluoroacetate) salt] | ≤ 1000 nM
Cc1cc2c(ccc3nnc(C)n32)n1Cc1ccccc1F [Example 14, 6-(2-fluorobenzyl)-1,7-dimethyl-6H-pyrrolo[2,3-e][1,2,4]triazolo[4,3-a]pyridine] | ≤ 1000 nM
Cc1nnc2ccc3c(cc(-c4ccn(C)n4)n3Cc3ccccc3)n12 [Example 76, 6-benzyl-1-methyl-7-(1-methyl-1H-pyrazol-3-yl)-6H-pyrrolo[2,3-e][1,2,4]triazolo[4,3-a]pyridine] | ≤ 1000 nM
Cc1cc2c(cc(NCC3CN(C(=O)OC(C)(C)C)C3)c3nnc(C)n32)n1Cc1ccccc1 [Example 243, tert-Butyl 3-((6-benzyl-1,7-dimethyl-6H-pyrrolo[2,3-e][1,2,4]triazolo[4,3-a]pyridin-4-ylamino)methyl)azetidine-1-carboxylate] | 1000 to 10000 nM

SMILES | IC50
Cc1nnc2ccc3c(cc(-c4ccn(CCC(=O)NC5CCOCC5)n4)n3Cc3cccc(Cl)c3)n12 [Example 170, 3-{3-[6-(3-Chlorobenzyl)-1-methyl-6H-pyrrolo[2,3-e][1,2,4]triazolo[4,3-a]pyridin-7-yl]-1H-pyrazol-1-yl}-N-(tetrahydro-2H-pyran-4-yl)propanamide trifluoroacetate salt] | ≤ 1000 nM
Cc1cc2c(cc(Nc3ccncc3)c3nnc(C)n32)n1Cc1ccccc1 [Example 255, 6-Benzyl-1,7-dimethyl-N-(pyridin-4-yl)-6H-pyrrolo[2,3-e][1,2,4]triazolo[4,3-a]pyridin-4-amine] | ≤ 1000 nM
CC(=O)N1CCC(Nc2cc3c(cc(C)n3Cc3ccccc3)n3c(C)nnc23)CC1 [Example 216, N-(1-Acetylpiperidin-4-yl)-6-benzyl-1,7-dimethyl-6H-pyrrolo[2,3-e][1,2,4]triazolo[4,3-a]pyridin-4-amine] | 1000 to 10000 nM
Cc1nnc2ccc3c(cc(C(=O)NCc4ccncc4)n3Cc3ccccc3)n12 [Example 126, 6-Benzyl-1-methyl-N-(pyridin-4-ylmethyl)-6H-pyrrolo[2,3-e][1,2,4]triazolo[4,3-a]pyridine-7-carboxamide bis(trifluoroacetate) salt] | ≤ 1000 nM
Cc1cc2c(cc(NCCN(C)C)c3nnc(C)n32)n1Cc1ccccc1 [Example 246, N1-(6-Benzyl-1,7-dimethyl-6H-pyrrolo[2,3-e][1,2,4]triazolo[4,3-a]pyridin-4-yl)-N2,N2-dimethylethane-1,2-diamine] | ≤ 1000 nM
Cc1cc2c(cc(NC(=O)N(C)C)c3nnc(C)n32)n1Cc1ccccc1 [Example 251, 3-(6-Benzyl-1,7-dimethyl-6H-pyrrolo[2,3-e][1,2,4]triazolo[4,3-a]pyridin-4-yl)-1,1-dimethylurea] | ≤ 1000 nM
CCCC(=O)Nc1cc2c(cc(C)n2Cc2ccccc2)n2c(C)nnc12 [Example 267, N-(6-Benzyl-1,7-dimethyl-6H-pyrrolo[2,3-e][1,2,4]triazolo[4,3-a]pyridin-4-yl)butyramide] | ≤ 1000 nM
Cc1nnc2ccc3c(cc(-c4ccn[nH]4)n3Cc3cccc(Cl)c3)n12 [Example 155, 6-(3-chlorobenzyl)-1-methyl-7-(1H-pyrazol-5-yl)-6H-pyrrolo[2,3-e][1,2,4]triazolo[4,3-a]pyridine bis(trifluoroacetate) salt] | ≤ 1000 nM
Cc1nnc2ccc3c(cc(-c4ccn(C5CN(C(=O)CN(C)C)C5)n4)n3Cc3cccc(Cl)c3)n12 [Example 162, 2-(3-{3-[6-(3-Chlorobenzyl)-1-methyl-6H-pyrrolo[2,3-e][1,2,4]triazolo[4,3-a]pyridin-7-yl]-1H-pyrazol-1-yl}azetidin-1-yl)-N,N-dimethyl-2-oxoethanamine bis(trifluoroacetate) salt] | ≤ 1000 nM
Cc1nnc2ccc3c(cc(-c4ccsc4)n3Cc3ccccc3)n12 [Example 72, 6-benzyl-1-methyl-7-(3-thienyl)-6H-pyrrolo[2,3-e][1,2,4]triazolo[4,3-a]pyridine] | ≤ 1000 nM
CCCNc1cc2c(cc(C)n2Cc2ccccc2)n2c(C)nnc12 [Example 262, 6-Benzyl-N-propyl-1,7-dimethyl-6H-pyrrolo[2,3-e][1,2,4]triazolo[4,3-a]pyridin-4-amine] | 1000 to 10000 nM
Cc1cc2c(ccc3nnc(C)n32)n1Cc1cccc(CN(C)CCO)c1 [Example 37, 2-[{3-[(1,7-dimethyl-6H-pyrrolo[2,3-e][1,2,4]triazolo[4,3-a]pyridin-6-yl)methyl]benzyl}(methyl)amino]ethanol] | ≤ 1000 nM
Cc1cc2c(ccc3nnc(C)n32)n1CC1CCCC1 [Example 13, 6-(cyclopentylmethyl)-1,7-dimethyl-6H-pyrrolo[2,3-e][1,2,4]triazolo[4,3-a]pyridine] | 1000 to 10000 nM
Cc1cc2c(ccc3nnc(C)n32)n1CCc1ccccc1 [Example 6, 1,7-dimethyl-6-(2-phenylethyl)-6H-pyrrolo[2,3-e][1,2,4]triazolo[4,3-a]pyridine] | 1000 to 10000 nM
Cc1cc2c(cc(N[C@H]3CCOC3)c3nnc(C)n32)n1Cc1ccccc1 [Example 148, 6-benzyl-1,7-dimethyl-N-[(3S)-tetrahydrofuran-3-yl]-6H-pyrrolo[2,3-e][1,2,4]triazolo[4,3-a]pyridin-4-amine] | 1000 to 10000 nM
Cc1nnc2ccc3c(cc(C(N)=O)n3Cc3ccccc3)n12 [Example 58, 6-benzyl-1-methyl-6H-pyrrolo[2,3-e][1,2,4]triazolo[4,3-a]pyridine-7-carboxamide] | ≤ 1000 nM
